Experimental data published in ChEMBL document CHEMBL1201862, “PubChem BioAssay data set” (2004).
Activity calls are given as the source filed them.

How the values were obtained:
Leucine aminopeptidase = target: T1, Leucine aminopeptidase (Plasmodium falciparum 3D7, UniProt Q8IL11); experiment: P. falciparum M17LAP inhibitors, primary screen, biochemical, fluorogenic H-Leu-NHMec substrate, 1536-well (AID 1619); assay type: functional
T1 sequence (Q8IL11 whole entry): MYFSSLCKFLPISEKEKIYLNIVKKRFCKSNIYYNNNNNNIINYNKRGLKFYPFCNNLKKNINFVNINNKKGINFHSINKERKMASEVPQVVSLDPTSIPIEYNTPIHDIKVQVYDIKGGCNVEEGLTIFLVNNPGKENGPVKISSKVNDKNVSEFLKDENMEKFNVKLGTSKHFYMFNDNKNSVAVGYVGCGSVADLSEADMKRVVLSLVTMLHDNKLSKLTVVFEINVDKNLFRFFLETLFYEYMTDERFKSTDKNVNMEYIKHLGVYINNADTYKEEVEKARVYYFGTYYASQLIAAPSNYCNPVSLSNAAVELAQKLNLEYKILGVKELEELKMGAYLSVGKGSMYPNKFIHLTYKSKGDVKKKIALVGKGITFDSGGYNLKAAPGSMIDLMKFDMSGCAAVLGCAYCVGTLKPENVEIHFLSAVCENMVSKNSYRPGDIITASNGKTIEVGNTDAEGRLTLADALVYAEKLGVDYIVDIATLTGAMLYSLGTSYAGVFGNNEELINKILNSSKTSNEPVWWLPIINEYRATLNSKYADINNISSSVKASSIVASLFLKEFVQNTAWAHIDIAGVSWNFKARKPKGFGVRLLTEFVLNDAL

[1] = target: T2, Calpain-2 catalytic subunit (Sus scrofa, UniProt P43367); experiment: m-calpain protease blockers, concentration series – biochemical, fluorogenic peptide substrate, dose response (AID 1420); assay type: functional
T2 sequence (P43367 whole entry): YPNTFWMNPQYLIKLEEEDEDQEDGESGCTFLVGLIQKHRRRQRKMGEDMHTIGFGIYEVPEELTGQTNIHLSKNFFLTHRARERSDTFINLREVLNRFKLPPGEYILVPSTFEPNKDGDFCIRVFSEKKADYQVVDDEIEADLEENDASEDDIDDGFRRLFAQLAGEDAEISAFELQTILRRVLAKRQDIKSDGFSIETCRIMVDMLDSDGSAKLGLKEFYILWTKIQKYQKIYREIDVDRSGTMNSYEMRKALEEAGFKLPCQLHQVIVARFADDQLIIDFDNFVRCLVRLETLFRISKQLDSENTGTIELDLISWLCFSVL

[2] = HIV-1 AD8 envelope cell-cell fusion blockers – cherry-pick, dose response (AID 652062); assay type: functional, cell-based;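 further: luciferase signal from cell-cell fusion driven by HIV-1 clade B AD8 Env; potency is for inhibitors of fusion seen as a drop in luminescence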
[3] = blockers of HIV-1 ZM109 envelope-driven cell-cell fusion – HeLa effector, CEM target cells, luciferase, cherry-pick, dose response (AID 652058); assay type: functional, cell-based;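 further: luciferase signal from HIV-1 Env mediated cell-cell fusion of effector and target cells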
[4] = off-target signal loss in HeLa-CEM21 co-culture – HeLa F-luc CTL cells, cherry-picked, counter-screen for HIV-1 Env fusion inhibitor project, dose response (AID 652040); assay type: functional, cell-based;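 further: potency for signal decrease marking cytotoxic or nonspecific inhibition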
[5] = blockers of HIV-1 envelope-mediated cell-cell fusion – cherry-pick, dose response (AID 652057); assay type: functional, cell-based
[6] = target: T3, Mannose-6-phosphate isomerase (Homo sapiens, UniProt P34949); experiment: MPI inhibition at elevated mannose 6-phosphate – biochemical, fluorescence intensity, high mannose 6-phosphate, primary screen (AID 1220)
T3 sequence (P34949 whole entry): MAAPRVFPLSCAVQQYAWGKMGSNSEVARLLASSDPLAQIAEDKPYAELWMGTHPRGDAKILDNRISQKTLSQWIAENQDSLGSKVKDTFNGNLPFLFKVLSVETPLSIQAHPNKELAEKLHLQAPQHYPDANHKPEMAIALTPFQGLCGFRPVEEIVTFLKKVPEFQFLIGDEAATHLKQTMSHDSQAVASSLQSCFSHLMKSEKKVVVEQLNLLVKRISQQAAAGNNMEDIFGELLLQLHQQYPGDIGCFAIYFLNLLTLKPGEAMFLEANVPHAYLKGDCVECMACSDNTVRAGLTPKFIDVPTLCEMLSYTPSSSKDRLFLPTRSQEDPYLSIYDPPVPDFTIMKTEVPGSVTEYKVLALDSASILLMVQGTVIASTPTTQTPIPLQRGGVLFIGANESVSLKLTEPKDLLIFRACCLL

[7] = target: T4, Replicative DNA helicase DnaB (Mycobacterium tuberculosis, UniProt P9WMR3); experiment: DnaB intein splicing inhibitors, dose response, biochemical, cell-free fluorescence (AID 449749); assay type: functional
T4 sequence (P9WMR3 whole entry): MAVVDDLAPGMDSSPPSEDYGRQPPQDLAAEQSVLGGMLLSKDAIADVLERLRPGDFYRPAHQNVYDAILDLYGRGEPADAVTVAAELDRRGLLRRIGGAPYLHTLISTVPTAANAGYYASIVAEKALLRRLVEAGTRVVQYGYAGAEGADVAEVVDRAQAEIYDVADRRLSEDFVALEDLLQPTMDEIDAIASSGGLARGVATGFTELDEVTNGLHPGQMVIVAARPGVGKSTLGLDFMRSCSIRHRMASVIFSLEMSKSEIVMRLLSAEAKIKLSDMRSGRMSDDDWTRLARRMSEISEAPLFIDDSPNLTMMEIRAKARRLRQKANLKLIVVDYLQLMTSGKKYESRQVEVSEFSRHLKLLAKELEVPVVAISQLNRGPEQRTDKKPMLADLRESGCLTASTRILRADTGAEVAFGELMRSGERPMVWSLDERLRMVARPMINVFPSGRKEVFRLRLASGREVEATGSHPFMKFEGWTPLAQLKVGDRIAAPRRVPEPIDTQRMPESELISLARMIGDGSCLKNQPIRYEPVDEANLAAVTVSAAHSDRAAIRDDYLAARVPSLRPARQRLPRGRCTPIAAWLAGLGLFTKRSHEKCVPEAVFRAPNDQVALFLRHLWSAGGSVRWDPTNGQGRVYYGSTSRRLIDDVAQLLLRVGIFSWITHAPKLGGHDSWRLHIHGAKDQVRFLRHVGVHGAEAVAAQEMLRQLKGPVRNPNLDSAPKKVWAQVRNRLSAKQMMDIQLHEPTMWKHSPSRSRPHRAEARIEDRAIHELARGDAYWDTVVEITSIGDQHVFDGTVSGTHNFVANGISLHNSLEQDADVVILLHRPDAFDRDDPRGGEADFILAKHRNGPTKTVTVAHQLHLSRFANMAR

Protein RecA = target: T5, Protein RecA (Mycobacterium tuberculosis, UniProt P9WHJ3); experiment: Fluorescence Cell-Free Homogeneous Dose Retest to Identify Inhibitors of RecA-Intein Splicing Activity. [Related pubchem assays (depositor defined):AID2097, AID2223, AID489010, AID492950]; assay type: functional
T5 sequence (P9WHJ3 whole entry): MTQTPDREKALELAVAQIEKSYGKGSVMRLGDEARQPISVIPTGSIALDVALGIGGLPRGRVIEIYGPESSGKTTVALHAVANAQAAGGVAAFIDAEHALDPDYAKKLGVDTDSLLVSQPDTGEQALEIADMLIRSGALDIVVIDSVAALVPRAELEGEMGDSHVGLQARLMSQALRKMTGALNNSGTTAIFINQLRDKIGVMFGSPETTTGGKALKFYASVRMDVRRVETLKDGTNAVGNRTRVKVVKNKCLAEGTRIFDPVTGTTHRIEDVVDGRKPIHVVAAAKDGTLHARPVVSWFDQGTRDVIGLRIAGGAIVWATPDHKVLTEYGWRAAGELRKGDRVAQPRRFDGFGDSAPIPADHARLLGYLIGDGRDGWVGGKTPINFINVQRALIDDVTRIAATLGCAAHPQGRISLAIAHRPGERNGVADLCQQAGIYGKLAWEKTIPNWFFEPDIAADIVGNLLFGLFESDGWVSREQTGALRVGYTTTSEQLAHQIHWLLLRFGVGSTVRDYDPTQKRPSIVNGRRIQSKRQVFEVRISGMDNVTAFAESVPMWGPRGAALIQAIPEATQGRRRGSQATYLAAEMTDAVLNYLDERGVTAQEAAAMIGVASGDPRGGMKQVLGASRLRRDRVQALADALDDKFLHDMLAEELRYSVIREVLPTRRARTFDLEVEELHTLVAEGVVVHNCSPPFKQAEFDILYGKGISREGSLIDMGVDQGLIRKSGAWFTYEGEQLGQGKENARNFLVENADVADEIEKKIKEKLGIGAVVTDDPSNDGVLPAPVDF

[8] = target: Induced myeloid leukemia cell differentiation protein Mcl-1 (Homo sapiens, UniProt Q07820); assay type: functional
Protein skinhead-1 = target: T6, Protein skinhead-1 (Caenorhabditis elegans, UniProt P34707); assay type: functional
T6 sequence (P34707 whole entry): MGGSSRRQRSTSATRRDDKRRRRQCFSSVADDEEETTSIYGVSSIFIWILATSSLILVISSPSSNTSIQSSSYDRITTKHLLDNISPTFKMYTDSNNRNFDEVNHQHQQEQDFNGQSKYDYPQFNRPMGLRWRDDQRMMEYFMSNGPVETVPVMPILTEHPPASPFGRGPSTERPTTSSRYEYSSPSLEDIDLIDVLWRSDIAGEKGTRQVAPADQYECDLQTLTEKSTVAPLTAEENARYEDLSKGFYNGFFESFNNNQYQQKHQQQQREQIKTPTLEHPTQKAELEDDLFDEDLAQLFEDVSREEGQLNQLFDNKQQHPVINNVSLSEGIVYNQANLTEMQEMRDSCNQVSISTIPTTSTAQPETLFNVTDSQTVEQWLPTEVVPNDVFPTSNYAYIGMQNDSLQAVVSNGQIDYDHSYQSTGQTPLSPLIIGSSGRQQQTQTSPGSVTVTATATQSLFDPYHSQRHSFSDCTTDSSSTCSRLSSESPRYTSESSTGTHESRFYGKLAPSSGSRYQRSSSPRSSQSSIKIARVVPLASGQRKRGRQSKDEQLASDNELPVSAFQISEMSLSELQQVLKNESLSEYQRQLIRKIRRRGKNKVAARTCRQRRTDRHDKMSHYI

[9] = target: Mitogen-activated protein kinase 10 (Homo sapiens, UniProt P53779); experiment: Dose response biochemical screening assay for inhibitors of c-Jun N-Terminal Kinase 3 (JNK3). [Related pubchem assays: 746 ]
H4 = experiment: Luminescence Cell-Based Dose Response HTS to Identify Activators of 5'UTR Stem-Loop Driven Prion Protein mRNA Translation in H4 Neuroglioblastoma Cells. [Related pubchem assays: 1829 (Project Summary), 1814 (Primary HTS)]; assay type: functional; details: Homo sapiens
[10] = Luminescence Cell-Based Dose Response HTS to Identify Activators of Luciferase Translation or Activity in H4 […] Cells. [Related pubchem assays: 1829 (Project Summary), 1814 (Primary HTS)]; assay type: functional
[11] = non-specific 3'UTR reporter inhibition in Clone20-Shn3RL – cell-based, Renilla luciferase, cherry-picked, counter-screen for Shn3 inhibitor project, dose response (AID 624133); assay type: functional
[12] = loss of viability in HepG2 cells – cell-based, CellTiter-Glo, cherry-picked, cytotoxicity control for Shn3 inhibitor project, dose response (AID 624134); assay type: functional
[13] = reduction of Shn3 3'UTR-driven luciferase in osteoblasts – cell-based, Clone20 osteoblasts, firefly luciferase, cherry-picked, dose response (AID 624132); assay type: functional;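 further: firefly luciferase luminescence from reporter carrying the Shn3 3'UTR in osteoblasts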
[14] = target: T7, Ubiquitin-conjugating enzyme E2 N (Homo sapiens, UniProt P61088); assay type: functional;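 further: Dose-response confirmation in a TR-FRET assay detecting UBC13-driven polyubiquitin chain formation, inhibition measured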
T7 sequence (P61088 whole entry): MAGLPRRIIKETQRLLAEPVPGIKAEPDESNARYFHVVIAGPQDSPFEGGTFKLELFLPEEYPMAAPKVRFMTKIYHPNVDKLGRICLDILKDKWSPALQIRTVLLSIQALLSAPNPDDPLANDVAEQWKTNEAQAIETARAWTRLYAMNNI

Induced myeloid leukemia cell differentiation protein Mcl-1, sequence (Q07820 whole entry): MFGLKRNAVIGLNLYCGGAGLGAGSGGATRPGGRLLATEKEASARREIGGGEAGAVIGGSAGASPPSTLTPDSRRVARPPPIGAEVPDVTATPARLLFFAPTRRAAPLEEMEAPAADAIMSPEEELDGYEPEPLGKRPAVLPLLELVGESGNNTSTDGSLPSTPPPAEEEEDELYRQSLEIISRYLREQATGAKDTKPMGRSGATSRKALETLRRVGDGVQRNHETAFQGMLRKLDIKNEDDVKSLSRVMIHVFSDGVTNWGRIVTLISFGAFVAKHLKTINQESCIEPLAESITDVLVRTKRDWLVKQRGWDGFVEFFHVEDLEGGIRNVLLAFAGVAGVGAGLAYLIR
Mitogen-activated protein kinase 10, sequence (P53779 whole entry): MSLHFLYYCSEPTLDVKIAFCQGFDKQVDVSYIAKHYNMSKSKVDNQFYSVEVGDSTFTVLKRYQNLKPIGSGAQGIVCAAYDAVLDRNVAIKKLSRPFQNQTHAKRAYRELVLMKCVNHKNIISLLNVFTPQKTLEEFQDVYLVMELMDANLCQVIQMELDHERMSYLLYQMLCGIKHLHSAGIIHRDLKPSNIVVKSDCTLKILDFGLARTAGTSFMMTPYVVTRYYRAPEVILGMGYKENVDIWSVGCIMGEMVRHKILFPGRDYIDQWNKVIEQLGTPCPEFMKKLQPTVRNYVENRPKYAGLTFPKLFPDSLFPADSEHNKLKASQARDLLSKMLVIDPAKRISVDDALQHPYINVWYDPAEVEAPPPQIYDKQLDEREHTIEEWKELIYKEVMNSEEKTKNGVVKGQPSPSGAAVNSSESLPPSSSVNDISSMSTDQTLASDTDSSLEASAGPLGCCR

Compound: CCc1nnc(NS(=O)(=O)c2ccc(NC(=O)COc3ccc4ccccc4c3)cc2)s1
- IC50 (Leucine aminopeptidase): 5.1 µM (active)

Compound: CC(C)(C)C1CCc2onc(C(=O)NCc3ccc(F)cc3)c2C1 (centres undefined)
- IC50 [1]: > 50 µM (not active)
- AC50 [2]: 21.9 µM (active)
- AC50 [3]: 2.91 µM (active)
- AC50 [4]: 37 µM (active)
- AC50 [5]: 23 µM (active)

Compound: CCCC(=O)OCCNc1cc(SCCC(=O)OC)c2nonc2c1[N+](=O)[O-]
- IC50 [6]: > 50 µM (not active)
- AC50 [7]: 2.88 µM (active)
- EC50 (Protein RecA): 4.87 µM (active)

Compound: CN(C)c1ccc(C(CNC(=O)c2ccc(C#N)cc2)c2c[nH]c3ccccc23)cc1 (centres undefined)
- IC50 [8]: 2.78 µM (not active)

Compound: CC(C)Oc1ccc(CCc2nnc(S)n2Cc2ccccc2)cc1
- IC50 [1]: 4.67 µM (not active)

Compound: COc1ccc(NC(=O)CN2C(=O)/C(=C3\SC(=S)N(C4CCS(=O)(=O)C4)C3=O)c3ccccc32)cc1 (centres undefined)
- IC50 [8]: 3.39 µM (active)

Compound: c1ccc(-n2nc3ccc4c[nH]nc4c3n2)cc1
- IC50 (Protein skinhead-1): > 100 µM (inactive)
- IC50 [9]: 43 µM (not active)
- EC50 (H4): 0.327 µM (active)
- EC50 [10]: > 120 µM (not active)

Compound: O=C(O)CC12CC3CC(C1)CC(n1ncc(NCc4ccc(F)cc4)c(Cl)c1=O)(C3)C2
- IC50 (Leucine aminopeptidase): 54 µM (active)

Compound: CC1CCC2C(=O)N(c3ccc(Cc4ccncc4)cc3)C(=O)C2C1 (centres undefined)
- IC50 [1]: 13.3 µM (not active)
- AC50 [11]: 5.74 µM (active)
- AC50 [12]: 47.7 µM (active)
- AC50 [13]: 2.65 µM (active)

Compound: Cc1ccc(Nc2cnn(C34CC5CC(CC(CC(=O)O)(C5)C3)C4)c(=O)c2Cl)cc1
- IC50 (Leucine aminopeptidase): 44.1 µM (active)

Compound: Cc1ccc(/N=C2\C(Cl)=C(O)OC2OC(=O)c2ccccc2C)cc1 (centres undefined)
- IC50 [1]: 12.6 µM (not active)
- IC50 [14]: > 20 µM (inactive)
